Each structure is given as a SMILES string. Activity calls are given as the source filed them. The calls are words filed in the database; no cut-off is given here.

The nature of test [1]: Inhibitory activity against microtubule assembly stimulated by paclitaxel (1 uM) at a concentration of 20 uM of the compound; No inhibition. It counts as functional.
A short description of test [2]: Tested for activity using microtubule assembly assay expressed as the ED50 to that of ED50 of paclitaxel; In active. It counts as functional.
The subject of test [3] is B16. Kind of test: Tested for cytotoxicity against B16 melanoma cells expressed as the ED50 to that of ED50 of paclitaxel; In active. It counts as functional, cell-based. As to conditions: Mus musculus.
Test [4] can be described thus: Tested for activity using microtubule assembly assay expressed as the ED50 to that of ED50 of paclitaxel. It counts as functional.
Test [5] relates to B16. Nature of the test: Tested for cytotoxicity against B16 melanoma cells expressed as the ED50 to that of ED50 of paclitaxel. It counts as functional, Mus musculus.

In the case of `CC(=O)O[C@H]1C(=O)[C@@]2(C)[C@H]([C@@H]3OC(=O)c4cccc(c4)/C=C\c4ccccc4[C@H](NC(=O)c4ccccc4)[C@@H](O)C(=O)OC4C[C@]3(O)C(C)(C)C1=C4C)[C@]1(OC(C)=O)CO[C@@H]1C[C@@H]2O`, in test [1], the Ratio entry is “inactive”.
As for `CC(=O)O[C@H]1C(=O)[C@@]2(C)[C@H]([C@H](OC(=O)c3ccccc3)[C@]3(O)CC(OC(=O)/C=C(\NC(=O)c4ccccc4)c4cccc(I)c4)C(C)=C1C3(C)C)[C@]1(OC(C)=O)CO[C@@H]1C[C@@H]2O` (stereo not given in full), the Ratio result in test [2] and in test [3] was “inactive” each time.
In the case of `CC(=O)O[C@H]1C(=O)[C@@]2(C)[C@H]([C@H](OC(=O)c3ccccc3)[C@]3(O)CC(OC(=O)[C@H](O[Si](C)(C)C(C)(C)C)[C@@H](NC(=O)c4ccccc4)c4cccc(I)c4)C(C)=C1C3(C)C)[C@]1(OC(C)=O)CO[C@@H]1C[C@@H]2O` (stereo not given in full), the Ratio amounted to 4.6 in test [4] and 27 in test [5].

For the origin of these results see ChEMBL document CHEMBL1131859, “Conformationally restricted paclitaxel analogues: macrocyclic mimics of the "hydrophobic collapse" conformation” (1999).
